Assay results reported in ChEMBL document CHEMBL4334521, “Neuroprotective Dihydro-β-agarofuran-Type Sesquiterpenes from the Seeds of Euonymus maackii” (2019).
The source made the active and inactive calls. The calls are words filed in the database; no cut-off is given here.

How the values were obtained:
SH-SY5Y = test: Neuroprotective activity against amyloid beta (25 to 35)-induced cytotoxicity in human SH-SY5Y cells at 10 uM preincubated for 2 hrs followed by amyloid beta (25 to 35)-stimulation and measured after 24 hrs by MTT assay (reference value: 71.18 +/- 1.34); assay type: functional
Danio rerio = species on record: Danio rerio; test: Neuroprotective activity against PTZ-induced seizure in zebra fish AB at 10 uM pretreated for 24 hrs followed by PTZ-stimulation and measured after 15 mins; assay type: functional, organism-based

| Structure (SMILES) | Activity (SH-SY5Y) | Activity (Danio rerio) |
| --- | --- | --- |
| CCC(C)C(=O)O[C@H]1C[C@](C)(O)[C@]23OC(C)(C)[C@H](C[C@H](OC(=O)c4ccccc4)[C@]2(COC(C)=O)[C@H]1OC(=O)C(C)CC)[C@H]3OC(C)=O (some centres not stated) | 92.86% | – |
| CCC(C)C(=O)O[C@H]1[C@@H](OC(=O)c2ccoc2)C[C@](C)(O)[C@]23OC(C)(C)[C@H](C[C@H](OC(=O)c4ccoc4)[C@]12COC(C)=O)[C@H]3OC(C)=O (some centres not stated) | 82.96% | – |
| CCC(C)C(=O)O[C@H]1C[C@](C)(O)[C@]23OC(C)(C)[C@H](C[C@@H](OC(=O)c4ccoc4)[C@]2(COC(C)=O)[C@H]1OC(=O)c1ccoc1)[C@H]3OC(C)=O (some centres not stated) | 71% | – |
| CC[C@H](C)C(=O)O[C@@H]1[C@H]2[C@@H](OC(C)=O)[C@]3(OC2(C)C)[C@H](C)C[C@H](OC(=O)c2ccccc2)[C@H](OC(=O)c2ccccc2)[C@@]3(COC(C)=O)[C@@H]1OC(C)=O | 80.11% | – |
| CCC(C)C(=O)O[C@H]1[C@@H](OC(C)=O)C[C@@H](C)[C@]23OC(C)(C)[C@H](C[C@@H](OC(=O)c4ccccc4)[C@]12COC(C)=O)[C@H]3OC(C)=O (some centres not stated) | 88.34% | – |
| O=C(O[C@@H]1Cc2c(O)cc(O)cc2O[C@@H]1c1cc(O)c(O)c(O)c1)c1cc(O)c(O)c(O)c1 [EPIGALOCATECHIN GALLATE] | 87.2% | – |
| CC(=O)OC[C@]12C(=O)[C@@H](OC(=O)c3ccccc3)[C@@H]3[C@@H](OC(C)=O)[C@]1(OC3(C)C)[C@H](C)C[C@H](OC(=O)c1cccnc1)[C@@H]2O | 74.16% | – |
| CC(=O)OC[C@]12[C@H](OC(=O)c3ccoc3)C[C@@H]3[C@@H](OC(C)=O)[C@]1(OC3(C)C)[C@@](C)(O)C[C@H](OC(=O)c1ccoc1)[C@@H]2OC(=O)c1ccoc1 | 70.11% | – |
| CC(=O)OC[C@]12[C@H](OC(C)=O)[C@H](OC(=O)c3ccccc3)[C@@H]3[C@@H](OC(C)=O)[C@]1(OC3(C)C)[C@H](C)C[C@H](OC(=O)c1ccccc1)[C@@H]2OC(=O)c1ccccc1 | 80.92% | – |
| CC(=O)OC[C@]12[C@@H](OC(=O)c3ccccc3)C[C@@H]3[C@@H](OC(C)=O)[C@]1(OC3(C)C)[C@H](C)C[C@H](OC(=O)c1ccccc1)[C@@H]2OC(C)=O | 83.04% | inactive |
| CC(=O)OC[C@]12[C@H](OC(=O)c3ccoc3)C[C@@H]3[C@@H](OC(C)=O)[C@]1(OC3(C)C)[C@@](C)(O)C[C@H](OC(=O)c1ccccc1)[C@@H]2OC(=O)c1ccoc1 | 80.8% | – |
| CC(=O)OC[C@]12[C@H](OC(=O)c3ccccc3)C[C@@H]3[C@@H](OC(C)=O)[C@]1(OC3(C)C)[C@H](C)C[C@H](OC(C)=O)[C@@H]2OC(C)=O | 79.62% | – |
| CC(=O)OC[C@]12[C@H](OC(C)=O)[C@H](OC(=O)c3ccccc3)[C@@H]3[C@@H](OC(C)=O)[C@]1(OC3(C)C)[C@H](C)C[C@H](OC(C)=O)[C@@H]2OC(=O)c1ccccc1 | 80.75% | Active |
| CC(=O)OC[C@]12[C@H](OC(C)=O)[C@H](OC(=O)c3ccccc3)[C@@H]3[C@@H](OC(C)=O)[C@]1(OC3(C)C)[C@H](C)C[C@H](O)[C@@H]2OC(=O)c1ccccc1 | 85.91% | – |
| CCCCCC(=O)O[C@H]1C[C@@H](C)[C@]23OC(C)(C)[C@H]([C@@H](OC(=O)c4ccccc4)[C@@H](OC(C)=O)[C@]2(COC(C)=O)[C@H]1OC(=O)c1ccccc1)[C@H]3OC(C)=O | 86.65% | – |
